Laboratory results reported in US20070135375A1, “Sulfamoyl sulfonate prodrugs” (priority 2005, published 2007).
Where two headings read alike, the source gives them in different places.

How the values were obtained:
[1] = target: human carbonic anhydrase II (Homo sapiens, UniProt P00918); assay: Carbonic anhydrase inhibition, photometric, nitrophenyl acetate conversion (CA II); format: biochemical
Excerpt: (§1) Photometric determination of the inhibition of human carbonic anhydrase I or II with sulfonamides or sulfamates on microtiter plates with the aid of enzymatic conversion of nitrophenyl acetate with a color change from colorless to yellow.

[2] = target: human carbonic anhydrase I (Homo sapiens, UniProt P00915); assay: Carbonic anhydrase inhibition, photometric, nitrophenyl acetate conversion (CA I); format: biochemical
Excerpt: as §1

[3] = Solubility in water (kinetic nephelometry / thermodynamic HPLC); format: physicochemical; conditions: for solubility: 25 °C, aqueous buffer
Method: The compounds according to the invention were measured as 10 mmol DMSO solution in a 0.01 M phosphate buffer solution at pH 7.4 and 25° C. with nephelometry and turbidity.
While in a turbid state, the solution to be tested was added drop by drop to the buffer solution until a precipitate settled.
The precipitate was detected in a dilution series (compounds in a phosphate buffer solution according to the invention) by nephelometry.
b.) Thermodynamic Measurement:
The compounds in solid form according to the invention were added to an excess of an aqueous buffer system of various pH values. It was stirred 24 hours at 25° C. After centrifuging, the solution was examined with HPLC (HPLC: column: Xterra MS C18 2.5 μm, 30×4.6 mm).

[4] = Hydrolysis in aqueous buffer of various pH values at 37° C., HPLC; format: physicochemical
Method: The compounds according to the invention were measured as a DMSO solution in an aqueous buffer of various pH values at 37° C.
(§2) The quantification took place through HPLC (HPLC column: Xterra MS C18 2.5 μm 4.6×30 mm). Based on the test substances to be measured, the following gradient system was used for the HPLC: • Acidic gradient: A: water/0.01% trifluoroacetic acid, B: acetonitrile/0.01% trifluoroacetic acid—0 min 5% B, 0-3 min 65% B, 3-5 min 65% B, 5-6 min 5% B • Alkaline gradient: A: water/0.025% ammonia, B: acetonitrile/0.025% ammonia—0 min 20% B, 0-3 min 80% B, 3-5 min 80% B, 5-6 min 20% B. The quantification took place after 1 and 2 hours and after 24 hours.

[5] = Stability in simulated gastric juice (NaCl solution with pepsin, pH~1.2), HPLC; format: physicochemical; conditions: 30 min, 37° C., column head pH = 1, cells note pH = 1.2 (gastric juice)
Method: as §2, with “hours. Stability in Simulated Gastric Juice:” for “hours.”
Solutions of the compounds according to the invention were incubated at 37° C. in simulated gastric juice (aqueous NaCl solution with pepsin, pH˜1.2).
The quantification took place through HPLC (HPLC-column: Xterra MS C18 2.5 μm 4.6×30 mm) using the gradient system: […]
A: water/0.01% trifluoroacetic acid, B: acetonitrile/0.01% trifluoroacetic acid—0 min 5% B, 0-3 min 65% B, 3-5 min 65% B, 5-6 min 5% B.
The quantification took place after 0.5, 1, 1.5 and 2 hours.

[6] = human carbonic anhydrase II, read-out: CA II IC50
[7] = human carbonic anhydrase I, read-out: CA I IC50

human carbonic anhydrase I, sequence (P00915 whole entry): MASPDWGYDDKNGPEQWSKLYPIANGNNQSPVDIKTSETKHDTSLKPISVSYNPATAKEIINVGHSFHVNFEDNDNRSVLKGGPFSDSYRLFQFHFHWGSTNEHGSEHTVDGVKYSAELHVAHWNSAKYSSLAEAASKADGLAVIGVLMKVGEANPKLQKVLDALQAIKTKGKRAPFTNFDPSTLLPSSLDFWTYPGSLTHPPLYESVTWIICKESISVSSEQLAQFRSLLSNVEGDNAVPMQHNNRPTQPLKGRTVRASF

Molecule: C[C@]12CC[C@@H]3c4ccc(O)cc4CC[C@H]3[C@@H]1CC[C@@H]2OS(=O)(=O)c1cccc(S(N)(=O)=O)c1 [3-Hydroxyestra-1,3,5(10)-trien-17β-yl 3′-sulfamoylphenyl Sulfonate]
- IC50 [1, 6]: 81 nM
- IC50 [2, 7]: 1700 nM
- solubility [3]: 3 µg/mL
- Decomposition in % ([4]; pH = 1, 37° C., 1 h): 7%
- Decomposition in % ([4]; pH = 1, 37° C., 2 h): 14%
- Decomposition in % ([4]; pH = 1, 37° C., 24 h): 80%
- Decomposition in % ([4]; pH = 7.4, 37° C., 1 h): 6%
- Decomposition in % ([4]; pH = 7.4, 37° C., 2 h): 13%
- Decomposition in % ([4]; pH = 7.4, 37° C., 24 h): 84%
- Decomposition in % [5]: 4%

Molecule: C[C@]12CC[C@H]3[C@@H](CCC4=CC(=O)CC[C@@]43C)[C@@H]1CC[C@@H]2OS(=O)(=O)c1cccc(S(N)(=O)=O)c1 [3-Oxo-androst-4-en-17β-yl 3′-sulfamoylphenyl Sulfonate]
- IC50 [1]: 120 nM
- IC50 [2]: 2300 nM
- solubility [3]: 5 µg/mL
- Decomposition in % ([4]; pH = 1, 37° C., 1 h): 6%
- Decomposition in % ([4]; pH = 1, 37° C., 2 h): 11%
- Decomposition in % ([4]; pH = 1, 37° C., 24 h): 78%
- Decomposition in % ([4]; pH = 7.4, 37° C., 1 h): 6%
- Decomposition in % ([4]; pH = 7.4, 37° C., 2 h): 12%
- Decomposition in % ([4]; pH = 7.4, 37° C., 24 h): 75%
- Decomposition in % [5]: 3%

Molecule: C[C@@H]1CC2=CC(=O)CC[C@]2(C)[C@H]2CC[C@]3(C)[C@@H](OS(=O)(=O)c4cccc(S(N)(=O)=O)c4)CC[C@H]3[C@H]12 [3-oxo-7α-methylandrost-4-en-17β-yl 3′-sulfamoylphenyl sulfonate]
- IC50 [1, 6]: 120 nM
- IC50 [2, 7]: 2300 nM
- Solubility in Water [3]: About 6 mg/l
- Decomposition in % ([4]; pH = 1, 37° C., 1 h): 6%
- Decomposition in % ([4]; pH = 1, 37° C., 2 h): 11%
- Decomposition in % ([4]; pH = 1, 37° C., 24 h): 71%
- Decomposition in % ([4]; pH = 7.4, 37° C., 1 h): 6%
- Decomposition in % ([4]; pH = 7.4, 37° C., 2 h): 11%
- Decomposition in % ([4]; pH = 7.4, 37° C., 24 h): 70%

Molecule: C[C@]12CC[C@@H]3c4ccc(OS(N)(=O)=O)cc4CC[C@H]3[C@@H]1CC[C@@H]2O [Estradiol-3-sulfamat, Estradiol-3-sulfamate, reference compound]
- IC50 [1, 6]: 34 nM
- IC50 [2, 7]: 157 ± 10.6 nM

Molecule: CCC(=O)O[C@H]1CC[C@H]2[C@@H]3CCC4=CC(=O)CC[C@]4(C)[C@H]3CC[C@]12C [Testosterone Propionate, 3-Oxoandrost-4-en-17β-yl n-propionate, reference compound]
- Solubility in Water (in words) [3]: insoluble
- Decomposition in % ([4]; pH = 1, 37° C., 1 h): 0%
- Decomposition in % ([4]; pH = 1, 37° C., 2 h): 0%
- Decomposition in % ([4]; pH = 1, 37° C., 24 h): 0%
- Decomposition in % ([4]; pH = 7.4, 37° C., 1 h): 0%
- Decomposition in % ([4]; pH = 7.4, 37° C., 2 h): 0%
- Decomposition in % ([4]; pH = 7.4, 37° C., 24 h): 0%
- Decomposition in % [5]: 0%

Molecule: Zidovudine-sulfamoylphenyl Sulfonate [Zidovudinsulfonat]
- IC50 [1, 6]: 1100 nM
- IC50 [2, 7]: 2900 nM
